Experimental data reported in patent US20050267054A1, “Antibacterial compounds with improved pharmacokinetic profiles” (priority 2002, published 2005).
Read-outs that look alike come from different tables or passages of the source.

Assay: Pharmacokinetic profile, cassette dosing protocol in dog (IV and PO)
Assay type: in vivo
Conditions: male beagle dogs, 1 mg/kg; for AUC / clearance / half-life / Cmax / Tmax / Vd: dog, plasma; for clearance: read-out: CLp (IV) plasma clearance (converted); for Vd: male, beagle, iv
Protocol: The pharmacokinetic profiles of EXAMPLE 20, EXAMPLE 22, EXAMPLE 29 and EXAMPLE 31 were evaluated using cassette dosing protocols in dog. The cassette dosing protocol in dogs combined three test compounds with the reference compound (EXAMPLE 104 of commonly-owned U.S. Pat. No. 5,866,549), each at a dose of 1 mg/kg. The compounds for each cassette were formulated as a solution in an aqueous vehicle containing 10% ethanol and one equivalent hydrochloric acid. Groups of three male beagle dogs received either an intravenous dose (IV) or an oral dose (PO). Sequential blood samples were taken from each animal for 24 hours after dosing. The plasma concentrations of the test compound and reference compounds were simultaneously determined using HPLC-MS/MS following liquid-liquid extraction of the samples. The results are shown in TABLE 2, in which CLp is plasma clearance; T1/2 and Tmax are expressed in hours; Cmax is expressed in μg/mL; AUC is expressed in μg·h/mL; F is percent bioavaibility; and Vc and Vb (volumes of distibution) are expressed in L/Kg.

[1] = intravenous dose, read-out: AUC (IV)
[2] = intravenous dose, read-out: T1/2 (IV) (converted)
[3] = oral dose, read-out: T1/2 (PO) (converted)
[4] = intravenous dose, read-out: Vb (IV) volume of distribution
[5] = intravenous dose, read-out: Vc (IV) volume of distribution

Structure (SMILES) | AUC [1] [ng·h/mL] | clearance (intravenous dose) [mL/min/kg] | half-life [2] [h] | Cmax (oral dose) [ng/mL] | Tmax (oral dose) [h] | AUC (oral dose, read-out: AUC (PO)) [ng·h/mL] | half-life [3] [h] | F (PO) percent bioavaibility (oral dose) [%] | Vd [4] [L/kg] | Vd [5] [L/kg]
CC[C@H]1OC(=O)[C@@](C)(F)C(=O)[C@H](C)[C@@H](O[C@@H]2O[C@H](C)C[C@H](N(C)C)[C@H]2O)C(C)(OC/C=C/c2ccc(-c3nnn(C)n3)s2)C[C@@H](C)C(=O)[C@H](C)[C@H]2NC(=O)O[C@@]21C (stereo in doubt) [EXAMPLE 31, (3aS,4R,7S,9R,10R,11S,13R,15R,15aR)-4-ethyl-7-fluoro-3a,7,9,11,13,15-hexamethyl-11-(((2E)-3-(5-(2-methyl-2H-tetraazol-5-yl)thien-2-yl)prop-2-enyl)oxy)-2,6,8,14-tetraoxotetradecahydro-2H-oxacyclotetradecino(4,3-d) (1,3)-oxazol-10-yl 3,4,6-trideoxy-3-(dimethylamino)-β-D-xylo-hexopyranoside] | 16100 | 1.17 | 22.9 | 480 | 4.5 | 12600 | 17.2 | 81.10 | 2.3 | 1.1
CC[C@H]1OC(=O)[C@H](C)C(=O)[C@H](C)[C@@H](O[C@@H]2O[C@H](C)C[C@H](N(C)C)[C@H]2O)C(C)(OCC#Cc2ccc(-c3nnn(C)n3)s2)C[C@@H](C)C(=O)[C@H](C)[C@H]2NC(=O)O[C@@]21C (stereo in doubt) [EXAMPLE 29, (3aS,4R,7R,9R,10R,11S,13R,15R,15aR)-4-ethyl-3a,7,9,11,13,15-hexamethyl-11-((3-(5-(2-methyl-2H-tetraazol-5-yl)thien-2-yl)prop-2-ynyl)oxy)-2,6,8,14-tetraoxotetradecahydro-2H-oxacyclotetradecino(4,3-d) (1,3)-oxazol-10-yl 3,4,6-trideoxy-3-(dimethylamino)-β-D-xylo-hexopyranoside] |  |  |  |  |  |  |  | 80.30 | 1.2 | 0.9
CC[C@H]1OC(=O)[C@@](C)(F)C(=O)[C@H](C)[C@@H](O[C@@H]2O[C@H](C)C[C@H](N(C)C)[C@H]2O)C(C)(OCC#Cc2ccc(-c3nnn(C)n3)s2)C[C@@H](C)C(=O)[C@H](C)[C@H]2NC(=O)O[C@@]21C (stereo in doubt) [EXAMPLE 20, (3aS,4R,7S,9R,10R,11S,13R,15R,15aR)-4-ethyl-7-fluoro-3a,7,9,11,13,15-hexamethyl-11-((3-(5-(2-methyl-2H-tetraazol-5-yl)thien-2-yl)prop-2-ynyl)oxy)-2,6,8,14-tetraoxotetradecahydro-2H-oxacyclotetradecino(4,3-d) (1,3)-oxazol-10-yl 3,4,6-trideoxy-3-(dimethylamino)-β-D-xylo-hexopyranoside] | 7290 | 2.67 | 14.4 | 250 | 2 | 5140 | 11.1 | 73.60 | 3.1 | 1.6
CC[C@H]1OC(=O)[C@H](C)C(=O)[C@H](C)[C@@H](O[C@@H]2O[C@H](C)C[C@H](N(C)C)[C@H]2O)C(C)(OC/C=C/c2ccc(-c3nnn(C)n3)s2)C[C@@H](C)C(=O)[C@H](C)[C@H]2NC(=O)O[C@@]21C (stereo in doubt) [EXAMPLE 22, (3aS,4R,7R,9R,10R,11S,13R,15R,15aR)-4-ethyl-3a,7,9,11,13,15-hexamethyl-11-(((2E)-3-(5-(2-methyl-2H-tetraazol-5-yl)thien-2-yl)prop-2-enyl)oxy)-2,6,8,14-tetraoxotetradecahydro-2H-oxacyclotetradecino(4,3-d) (1,3)-oxazol-10-yl 3,4,6-trideoxy-3-(dimethylamino)-β-D-xylo-hexopyranoside] | 11500 | 1.5 | 8.4 | 490 | 1.5 | 6770 | 7.8 | 63.00 | 1.1 | 0.9
